Test [1] has as its system HIV-1BaL. In words: Inhibition of HIV-1 infection in monocyte-derived macrophages. It counts as cell-based. Conditions: six days of culture, p24 in supernatants, dose-dependent. The procedure:
(§1) FIG. 3 represents the inhibition of HIV-1 replication in AZT-NP-treated macrophages. Monocyte-derived macrophages were infected with CCR5-tropic HIV-1Ba-L for 3 h. After several washes, increasing concentrations of AZT derivatives were added to infected macrophages for 6 days of culture. The level of virus replication was monitored in culture supernatants by the p24 antigen capture ELISA. The infection inhibition is expressed as percentage of the average of three independent experiments (A). The frequency of infected cells was determined by flow cytometry after a costaining of macrophages with mAbs anti-CD206 (a marker of macrophages) and mAbs anti-p24 which target intracellular HIV-1 (B). Addition of AZT derivatives was followed by the increase of the size of macrophages as assessed by the Forward-Scattered light parameter (FSC) in flow cytometry (C). […] Using flow cytometry, the expression of the two HIV-1 coreceptors CCR5 (E) and CXCR4 (F) was determined at the surface of AZT derivatives-treated macrophages.
After 6 days of activation or differentiation, cells were washed twice and seeded into 96-well culture plates ([…]). […] The level of virus replication was monitored by HIV-1 p24 antigen ELISA.
Following six days of infection, the frequency of HIV-1-infected cells was determined by flow cytometry to detect intracellular HIV-1 p24 molecule. […]

Test [2] deals with HIV-1. Conditions: DCs infected, then treated with increasing concentrations, T cells added, 6 days.
Experimental: The question of the impact of NP on HIV-1 transmission from DCs to autologous T cells was addressed. DCs were first infected with HIV-1, then incubated with increasing concentrations of AZT derivatives before T cells were added.
To assess the transmission of HIV-1 from DCs to autologous T-cells, DCs were incubated into 96-well culture plates (1×10^5 cells/well) and infected with HIV-1 (1 ng p24 antigen) for 3 h at 37° C. in a 5% CO2 atmosphere. Following four washes, DCs were shortly incubated with increasing concentrations of indicated molecules or AZT (2 μM), and autologous stimulated T cells were added onto HIV-exposed DCs at DC: T-cell ratio of 1:5. Cells were cultured for 6 days. Each sample was performed in triplicate. Culture supernatants were harvested every 3 days and fresh medium with compounds was added. Supernatants were inactivated with 1% Triton X-100 and frozen at −20° C. Viral production by T lymphocytes was evaluated at the sixth day of the co-culture by measurement of p24 antigen in supernatants using capture ELISA.
The test system of test [3] is CCR5. Nature of the test: Surface expression of HIV-1 coreceptor on treated macrophages (flow cytometry). It counts as cell-based, human. The procedure: as §1
Following six days of infection, the frequency of HIV-1-infected cells was determined by flow cytometry to detect intracellular HIV-1 p24 molecule. […] Stained cells were immediately acquired on a FACScalibur (Becton Dickinson) and analyzed with FlowJo software.

The test system of test [4] is J774A.1 mouse macrophages. In words: [3H]-AZT-TP cellular uptake. It counts as cell-based. Conditions: J774A.1 cells, up to 8 hour exposure. On the procedure: Nanoparticles containing [methyl-^3H]-AZT-TP were prepared and purified as described above then diluted 1:10 in cell culture medium (in order to maintain cell viability above 80% as determined by MTT tests), so to have 70 nCi/well. A control solution of AZT-TP at the same final radioactivity concentration was used for comparison.
Cells were recovered from the culture flasks, counted and seeded in 6-well plates, at a surface density of 800,000 cells/well for J774A.1 and 160,000 for THP-1 using 2 mL medium per well. After 24 h incubation, the medium was withdrawn and 2 mL of AZT-TP nanoparticles or free AZT-TP were added in each well. Nanoparticles and AZT-TP were incubated with cells for 2 and 8 hours, after which the uptake was stopped by removing the cell culture medium. The cells were washed twice with PBS (Lonza) to remove loosely bound compounds and then lysed with 1 mL Solvable (Perkin-Elmer, France). The radioactivity of the supernatant medium, the washing supernatants and the cell lysate were counted. The uptake kinetics of nanoparticle AZT-TP was studied for 2 and 8 hours and compared to that of free AZT-TP.

Each structure is given as a SMILES string.

For the compound `Cc1cn([C@H]2C[C@H](N=[N+]=[N-])[C@@H](CO)O2)c(=O)[nH]c1=O` [AZT, zidovudine], the “production of HIV-1 by macrophages” value in test [1] is recorded as “inhibited”. Moreover, in test [2], the “production of HIV-1 after transmission from DCs to autologous T cells” value is listed as “inhibited”. The “expression of HIV-1 coreceptor CCR5 at macrophage surface” value in test [3] is on record as “did not interfere”.
Turning to `Cc1cn([C@H]2C[C@H](N=[N+]=[N-])[C@@H](COP(=O)(O)OP(=O)(O)OP(=O)(O)O)O2)c(=O)[nH]c1=O` [AZT-TP], in test [1], the “production of HIV-1 by macrophages” value is “inhibited”. The “production of HIV-1 after transmission from DCs to autologous T cells” value in test [2] is “inhibited”. In test [4], the AZT-TP uptake entry is recorded as “around 3 nmol per million cells”. The “expression of HIV-1 coreceptor CCR5 at macrophage surface” value in test [3] is on record as “did not interfere”.

These data come from patent publication US20240398981A1, “NOVEL NANOPARTICLES OF ANTIRETROVIRAL DRUGS, THEIR PREPARATION AND THEIR USE FOR THE TREATMENT OF VIRAL INFECTIONS” (CENTRE NATIONAL DE LA RECHERCHE SCIENTIFIQUE, priority 2018, published 2024).
